The values that follow come from patent US11318137B2, “Quinazoline compounds as modulators of Ras signaling” (VANDERBILT UNIVERSITY, priority 2017, dated 2022).

Assay [1] addresses T1, SOS-mediated nucleotide exchange on Ras (Homo sapiens, UniProt Q07889).
T1 sequence (Q07889 1-1333): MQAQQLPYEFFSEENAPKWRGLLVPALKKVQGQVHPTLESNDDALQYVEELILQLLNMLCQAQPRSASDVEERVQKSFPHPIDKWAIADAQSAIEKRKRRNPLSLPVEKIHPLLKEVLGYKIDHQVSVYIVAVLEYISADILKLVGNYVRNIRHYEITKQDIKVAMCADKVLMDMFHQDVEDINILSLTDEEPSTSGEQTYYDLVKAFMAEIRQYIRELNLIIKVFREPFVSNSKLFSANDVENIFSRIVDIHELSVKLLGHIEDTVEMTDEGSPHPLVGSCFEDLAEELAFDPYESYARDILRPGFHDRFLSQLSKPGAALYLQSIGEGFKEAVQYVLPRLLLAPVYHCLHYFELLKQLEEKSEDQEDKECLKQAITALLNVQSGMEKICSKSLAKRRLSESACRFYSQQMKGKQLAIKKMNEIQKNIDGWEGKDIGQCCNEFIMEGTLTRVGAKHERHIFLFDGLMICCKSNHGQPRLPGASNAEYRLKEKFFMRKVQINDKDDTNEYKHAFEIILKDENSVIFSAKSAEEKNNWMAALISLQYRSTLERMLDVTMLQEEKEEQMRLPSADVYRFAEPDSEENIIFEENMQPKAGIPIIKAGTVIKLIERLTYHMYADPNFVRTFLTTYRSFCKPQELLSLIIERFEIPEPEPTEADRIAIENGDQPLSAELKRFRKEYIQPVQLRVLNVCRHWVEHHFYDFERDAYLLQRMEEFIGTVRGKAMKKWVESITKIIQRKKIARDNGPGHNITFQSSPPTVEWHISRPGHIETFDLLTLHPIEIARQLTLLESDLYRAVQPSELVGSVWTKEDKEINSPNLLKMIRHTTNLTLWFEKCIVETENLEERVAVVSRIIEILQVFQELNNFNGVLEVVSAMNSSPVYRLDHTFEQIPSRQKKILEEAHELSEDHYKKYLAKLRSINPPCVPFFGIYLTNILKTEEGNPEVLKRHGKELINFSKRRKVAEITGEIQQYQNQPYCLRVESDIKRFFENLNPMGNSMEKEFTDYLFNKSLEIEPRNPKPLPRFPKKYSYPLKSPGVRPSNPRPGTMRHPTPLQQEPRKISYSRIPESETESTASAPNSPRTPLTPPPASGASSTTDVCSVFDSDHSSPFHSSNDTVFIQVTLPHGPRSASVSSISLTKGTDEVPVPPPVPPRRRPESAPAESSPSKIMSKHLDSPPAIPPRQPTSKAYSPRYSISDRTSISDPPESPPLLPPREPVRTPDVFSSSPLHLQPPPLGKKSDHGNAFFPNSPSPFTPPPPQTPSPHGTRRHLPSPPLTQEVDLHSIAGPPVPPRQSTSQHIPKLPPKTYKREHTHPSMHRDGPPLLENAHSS
As to the kind of experiment: SOS-mediated nucleotide exchange on Ras (BODIPY-GDP fluorescence). The settings on record: Ras loaded with BODIPY-GDP, GTP and SOS added; EC50 from derived exchange rates. Format: biochemical. Put shortly:
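Compound, then GTP and SOS, were added to buffered Ras preloaded with BODIPY-GDP, and the fluorescence change from labeled GDP being exchanged for GTP was followed over time. Rates came from single-exponential fits, and EC50 from a four-parameter fit of mean rate against compound concentration.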

In the next assay the target is T2, Son of Sevenless (SOS) (Homo sapiens, UniProt Q07889).
T2 sequence (Q07889 564-1049 limits assumed): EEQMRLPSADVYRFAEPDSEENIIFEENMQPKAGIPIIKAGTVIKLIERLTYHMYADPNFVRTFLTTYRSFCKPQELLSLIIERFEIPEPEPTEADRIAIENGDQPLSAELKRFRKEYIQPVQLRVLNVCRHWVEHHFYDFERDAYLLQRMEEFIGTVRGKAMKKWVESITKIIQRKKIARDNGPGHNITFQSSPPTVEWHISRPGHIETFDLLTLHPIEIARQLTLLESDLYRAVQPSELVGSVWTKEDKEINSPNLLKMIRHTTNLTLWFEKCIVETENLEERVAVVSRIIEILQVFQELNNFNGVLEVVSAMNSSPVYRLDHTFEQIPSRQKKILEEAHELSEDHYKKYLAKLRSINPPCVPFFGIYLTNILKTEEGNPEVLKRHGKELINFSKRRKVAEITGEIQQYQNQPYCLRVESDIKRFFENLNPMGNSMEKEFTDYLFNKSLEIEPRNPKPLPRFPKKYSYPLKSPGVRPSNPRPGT
As to the kind of experiment: Binding to SOS, fluorescence polarization anisotropy (FPA) displacement of FITC-conjugated probe. Conditions: binding affinity calculated from IC50 of FITC-probe displacement, read-out: Binding affinities (binding affinity to SOS). Put shortly: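 FITC-labelled probe incubated with SOS in buffer; displacement by test compound across a dose range read as fluorescence anisotropy change. IC50 from four-parameter variable-slope fit, binding affinity calculated from IC50.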

Assay [2] relates to H727 lung cancer cell lines, which contain a G12V K-Ras mutation. As to the kind of experiment: Inhibition of cancer cell proliferation (CellTiter-Glo, 3 days). Format: cell-based. The settings on record: Homo sapiens, NCI-H727, 72 h, H727 cells, 3 days at 37° C., normalized to DMSO control, read-out: Cell proliferation activity (H727 cancer cell line proliferation IC50). As for the experimental part: C. Inhibition of Cancer Cell Proliferation
Compounds of the present invention were measured for their ability to kill H727 lung cancer cell lines, which contain a G12V K-Ras mutation. Cell proliferation experiments were conducted in 96-well plates. Cells were plated at 1000 cells/well, incubated overnight, followed by treatment with a dose range of compound for 3 days at 37° C. Cell proliferation was assessed using a CellTiter-Glo assay (Promega) according to the manufacturer's protocol. Data were normalized to DMSO control. IC50 values were determined using a four-parameter dose-response (variable slope) equation. These assays are performed in a manner analogous to the assay disclosed in: Burns, M. C.; Sun, Q.; Daniels, R. N.; Camper, D. V.; Kennedy, J. P.; Phan, J.; Olejniczak, E. O.; Lee, T.; Waterson, A. G.; Rossanese, O. W.; Fesik, S. W. “Approach for targeting Ras with small molecules that activate SOS-mediated nucleotide exchange” Proc. Natl. Acad. Sci. 2014; 11(9): 3401-3406. PMCID: PMC3948241.

A value given as a limit tells only on which side of the number the result lay.

In the case of `C[C@@H](Nc1nc(NCc2ncco2)nc2c(C3=CCNCC3)cccc12)C1CC1` [Example 72, (R)—N^4-(1-cyclopropylethyl)-N^2-(oxazol-2-ylmethyl)-8-(1,2,3,6-tetrahydropyridin-4-yl)quinazoline-2,4-diamine], the 50% effective concentration (EC50) in assay [1] is 5 to 30 µM. In addition, the Ki at Son of Sevenless (SOS) was over 5 µM. The IC50 in assay [2] is 5 to 20 µM.
For `C1=C(c2cccc3c(NC(C4CC4)C4CC4)nc(NCC4CCCCC4)nc23)CCNC1` [Example 73, N^2-(cyclohexylmethyl)-N^4-(dicyclopropylmethyl)-8-(1,2,3,6-tetrahydropyridin-4-yl)quinazoline-2,4-diamine], in that order: 1 to 5 µM, 1 to 5 µM and under 1 µM.
In assay [1], `NCc1cccc2c(NC(C3CC3)C3CC3)nc(NCC3CCCCC3)nc12` [Example 75, 8-(aminomethyl)-N^2-(cyclohexylmethyl)-N^4-(dicyclopropylmethyl)quinazoline-2,4-diamine] yielded an EC50 of 5 to 30 µM. Moreover, the Ki at Son of Sevenless (SOS) was over 5 µM. For the same molecule, the IC50 in assay [2] is under 1 µM.
Molecule `C[C@@H](Nc1nc(NCC2CCCCC2)nc2c(C3=CCNCC3)cccc12)C1CC1` [Example 76, (R)—N^2-(cyclohexylmethyl)-N^4-(1-cyclopropylethyl)-8-(1,2,3,6-tetrahydropyridin-4-yl)quinazoline-2,4-diamine] displayed an EC50 in assay [1] of 1 to 5 µM. At Son of Sevenless (SOS), the Ki is 1 to 5 µM. Also, in assay [2], the IC50 is under 1 µM.
Take `C[C@@H](Nc1nc(NCC2CCCCC2)nc2c(CN)cccc12)C1CC1` [Example 78, (R)-8-(aminomethyl)-N^2-(cyclohexylmethyl)-N^4-(1-cyclopropylethyl)quinazoline-2,4-diamine]: in assay [1], the 50% effective concentration (EC50) is 1 to 5 µM. The Ki on Son of Sevenless (SOS) was over 5 µM. Moreover, the IC50 in assay [2] lay in the range of 5 to 20 µM.
`CCC(CC)CNc1nc(Nc2ccc(F)c(Cl)c2)nc2c(C3=CCNCC3)cccc12` [Example 98, N^2-(3-chloro-4-fluorophenyl)-N^4-(2-ethylbutyl)-8-(1,2,3,6-tetrahydropyridin-4-yl)quinazoline-2,4-diamine] came in with an EC50 in assay [1] of 5 to 30 µM. On Son of Sevenless (SOS), the Ki was 1 to 5 µM. In addition, the IC50 in assay [2] fell in the range of 1 to 5 µM.
`CC[C@@H](Nc1nc(Nc2ccc(F)c(Cl)c2)nc2c(N3CCNCC3)cccc12)c1cccs1` [Example 101, (R)—N^2-(3-chloro-4-fluorophenyl)-8-(piperazin-1-yl)-N^4-(1-(thiophen-2-yl)propyl)quinazoline-2,4-diamine] registered a concentration giving a half-maximal response (EC50) in assay [1] of 5 to 30 µM. For the same molecule, the Ki at Son of Sevenless (SOS) is over 5 µM. In addition, the IC50 in assay [2] is 1 to 5 µM.
The corresponding values for `CCC(CC)CNc1nc(Nc2ccc(F)c(Cl)c2)nc2c(N3CCNCC3)cccc12` [Example 102, N^2-(3-chloro-4-fluorophenyl)-N^4-(2-ethylbutyl)-8-(piperazin-1-yl)quinazoline-2,4-diamine] are 5 to 30 µM, over 5 µM and 1 to 5 µM.
As for `CC1CCC(CNc2nc(N[C@H](C)C3CC3)c3cccc(C4=CCNCC4)c3n2)CC1` (stereo partly drawn) [Example 104, (R)—N^4-(1-cyclopropylethyl)-N^2-((4-methylcyclohexyl)methyl)-8-(1,2,3,6-tetrahydropyridin-4-yl)quinazoline-2,4-diamine], the half-maximal effective concentration (EC50) in assay [1] lay within 1 to 5 µM. Also, the Ki on Son of Sevenless (SOS) is 1 to 5 µM. Besides, the IC50 in assay [2] is under 1 µM.

As usually defined, the EC50 is the concentration giving half of the maximal effect.
